Data on nine molecules can be found in PubChem BioAssay (NCI).

Common to all, as to test: NCI anticancer screen, dose series, 48 h
The subject of test [1] is SNB-75 CNS.
For test [2], the system named is TK-10 renal.
Test [3] deals with A549 NSCLC.
Test [4] concerns OVCAR-8 ovarian.
For test [5], the system named is MDA-MB-231 breast.
The subject of test [6] is NCI-H522 lung.
The subject of test [7] is ACHN renal.
The test system of test [8] is OVCAR-3 ovarian.
Test [9] deals with EKVX NSCLC.
In test [10] the test system is SN12C renal.

Several values for one entry are separate records, joined by “and”; a condition that tells them apart may be missing. Identical values can stand only once.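 Step 1: Grow cells in 96-well plates. Step 2: Expose to compound for 48 hours at 5 concentrations. Step 3: Interpolate endpoints linearly; if unreached, use highest concentration. The concentration for 50% growth inhibition is given as GI50. TGI: total growth inhibition.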

`CO[C@H]1C=C[C@]23c4cc5c(cc4CN(CC2O)[C@@H]3C1)OCO5` (some centres undefined): the TGI is 30.4 µM in test [1]; above 100 µM in test [2]; 44.9 µM in [3]; 38.5 µM in [4]; 34.6 µM in test [5]; 16 µM in [6]. In addition, the TGI in [7] was found to be 6.73 µM; in test [8] it was 22.3 µM; in [9], 52.2 µM; in test [10], 29.4 µM.
As to `CC(C)(C)n1cc(-c2ccnc(NCCNS(=O)(=O)c3ccc(Br)cc3)c2)c(-c2cccc(O)c2)n1`, the GI50 was 1.36 µM in [1]; 2.24 µM in [2]; 2.19 µM in test [3]; 2.27 µM in test [4]; 1.91 µM in [5]; 1.79 µM in test [6]. Further, the GI50 is 2.1 µM in test [7], 1.85 µM in test [8], 2.27 µM in test [9] and 1.72 µM in test [10]. The TGI in [1] worked out at 3.78 µM; in test [2], 5.93 µM; in test [3] it was 6.5 µM; in [4] it was 7.71 µM; in test [5], 4.07 µM; in [6], 4.04 µM. Moreover, the TGI in test [7] is 4.39 µM; in test [8], 3.68 µM; in test [9], 6.88 µM; in test [10] it was 3.2 µM.
Consider `CC(CC(=O)O)(CC(=O)O)C(=O)O`, for which the TGI in test [1], in test [2], in [3], in test [4], in test [5] and in test [6] was above 100 µM each time. The TGI in test [7], in test [8], in test [9] and in [10] was above 100 µM each time.
As for `Cn1c(=O)n(-c2ccc(C(C)(C)C#N)cc2)c2c3cc(-c4cnc5ccccc5c4)ccc3ncc21`, the GI50 is below 0.001 µM in test [1]; 0.0102 µM and 0.00652 µM and 0.0126 µM in test [2]; 0.0102 µM and 0.00594 µM and < 0.01 µM in test [3]; 0.0101 µM and 0.00582 µM and < 0.01 µM in [4]; 0.0197 µM and 0.00686 µM and < 0.011 µM in test [5]; < 0.0107 µM and 0.00646 µM and < 0.0112 µM in test [6]. The GI50 in [7] was < 0.0121 µM and 0.00573 µM and < 0.01 µM; in test [8], < 0.01 µM and 0.00609 µM and 0.0101 µM; in test [9] it was 0.0152 µM and 0.00573 µM and < 0.012 µM; in test [10], 0.0101 µM and 0.00461 µM and < 0.01 µM. Besides, the TGI was 0.0464 µM and 0.0263 µM in test [1]; 48.5 µM and > 10 µM and > 44.3 µM in [5]; above 100 µM in test [7]; above 100 µM in test [10].
`COc1cccc(-c2nn(-c3ccccc3)cc2-c2ccnc(NCCNC(=O)Nc3ccc(Cl)c(Cl)c3)c2)c1`: the GI50 was 1.43 µM in [1]; 4.78 µM in [2]; 3.38 µM in [3]; 2.98 µM in test [4]; 2.04 µM in test [5]; 2.18 µM in test [6]. Also, the GI50 in test [7] is 2.79 µM; in test [8], 2.59 µM; in [9], 2.48 µM; in test [10] it was 2.39 µM. The TGI in test [1] is 5.96 µM; in test [2], 18.9 µM; in test [3] it was 12.5 µM; in test [4], 11.2 µM; in [5], 5.04 µM; in [6], 5.96 µM. Also, the TGI amounted to 10.2 µM in [7], 8.2 µM in test [8], 16.7 µM in test [9] and 5.96 µM in test [10].
As for `CC[C@]12C=CCN3CC[C@]4(C(=C(C(=O)OC)C1)Nc1cc(O)ccc14)[C@@H]32`, the GI50 in test [1] was 7.38 µM; in [2], 30.8 µM; in test [3] it was 23.3 µM; in test [4], 24.5 µM; in test [5], 13.8 µM; in test [6], 15.1 µM. Moreover, the GI50 in test [7] is 18.5 µM; in [8] it was 17.7 µM; in test [9], 24.6 µM; in [10], 15.4 µM. Besides, the TGI in [1] was found to be 40.2 µM; in [2] it was 99.7 µM; in test [3] it was 70.8 µM; in [4], 68.8 µM; in test [5] it was 41.6 µM; in test [6], 55.2 µM. In addition, the TGI is 41.4 µM in [7], 33.9 µM in test [8], above 100 µM in [9] and 29.7 µM in [10].
For the molecule `Nc1ncnc2occ(-c3ccc(NC(=O)Nc4cc(C(F)(F)F)cc(C(F)(F)F)c4)cc3)c12`, the GI50 in [1] is 1.42 µM; in test [2] it was 1.84 µM; in test [3], 3 µM; in [4] it was 2.89 µM; in [5] it was 4.3 µM; in test [6], 2.55 µM. Further, the GI50 in [7] was 2.94 µM; in test [8], 3.24 µM; in test [9] it was 3.16 µM; in test [10], 2.12 µM. The TGI in test [1] was 4.88 µM; in test [2] it was 5.96 µM; in test [3], 7.18 µM; in test [4], 7.11 µM; in test [5] it was 9.09 µM; in [6] it was 5.67 µM. Besides, the TGI in test [7] is 12.6 µM; in [8] it was 6.71 µM; in test [9] it was 8.07 µM; in [10], 5.51 µM.
As to `CCOP(=O)(OCC)/C(C#N)=C\c1cccc2ccccc12`, the TGI in [1] was 88.5 µM; in test [2], above 100 µM; in test [3], above 100 µM; in test [4] it was above 100 µM; in test [5], above 100 µM; in test [6], above 100 µM. In addition, the TGI in test [7], in test [8], in test [9] and in test [10] was above 100 µM in each case.
Consider `O=C(N[C@@H]1CCCc2ccccc21)[C@H](CCC(=O)N1CCN(C2CCCCC2)CC1)N1C(=O)[C@@H](N2C(=O)OC[C@@H]2c2ccccc2)[C@H]1/C=C/c1ccccc1`, for which the GI50 was 1.32 µM in test [1]; 2.02 µM in test [2]; 2.6 µM in [3]; 4.58 µM in [4]; 1.89 µM in test [5]; 1.76 µM in test [6]. Moreover, the GI50 in [7] was 2.78 µM; in test [8], 1.72 µM; in [9] it was 2.52 µM; in [10], 3.72 µM. Also, the TGI stood at 4.19 µM in [1]; 6.01 µM in [2]; 14.8 µM in test [3]; 18.9 µM in [4]; 4.12 µM in [5]; 4.11 µM in test [6]. For the same molecule, the TGI in [7] is 22.1 µM; in test [8], 3.81 µM; in test [9], above 100 µM; in [10] it was 27.3 µM.
